According to patent publication US11130769B2 (Prelude Therapeutics Incorporated, priority 2018, dated 2021):
Values joined by “and” are separate entries in the source; they are usually repeats but may differ in a detail not shown here. Equal entries are not always repeated. Where two headings read alike, the source gives them in different places.

What was measured:
[1] = not given; remark: listed apart in the source
MCL-1 = MCL-1 (Homo sapiens (Human), UniProt Q07820); assay: Cell free Mcl-1:Bim affinity assay (fluorescence polarization competition); format: binding; details: 15 nM MCL-1, 5 nM FITC-Bim, 1 hour at room temperature, read-out: BIM_Ki
Procedure, shortened: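 Fluorescence polarization competition: 10-point 3-fold compound dilutions displaced 5 nM FITC-Bim from 15 nM MCL-1 over 1 h at room temperature. Ki was derived from the fitted IC50 using the Nikolovska-Coleska equation, with percent inhibition normalized to DMSO and positive controls.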

H929 cells = assay: Cell viability assay (H929 10 FBS); format: cell-based; details: read-out: H929_10FBS IC50
Procedure, shortened: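 ATP-based luminescence (CellTiter-Glo or ATPlite 1 Step, 30-60 min at RT) gauged viability of H929 myeloma cells after 24 h compound treatment at 37 °C. Cells plated at 4000 per well in 10% FBS RPMI 1640 supplemented with pyruvate, HEPES and glucose.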

[2] = from C=CC(C)OC(C)(C)C(=O)NS(=O)(=O)c1ccc2c(c1)N(C[C@@H]1CC[C@H]1[C@@H](O)C=C)C[C@@]1(CCCc3cc(Cl)ccc31)CO2, rcm bond, 16-membered ring, Zhan catalyst, DCE, 2.1 mM, 45.0 °C, 2.0 h
[3] = from C=CCN(C(=O)OC(C)(C)C)[C@H](C)C(=O)NS(=O)(=O)c1ccc2c(c1)N(C[C@@H]1CC[C@H]1[C@@H](O)C=C)C[C@@]1(CCCc3cc(Cl)ccc31)CO2, rcm bond, 16-membered ring, Zhan Catalyst 1B, DCE, 1.8 mM, 40.0 °C, 3.0 h
[4] = Homo sapiens, NCI-H929, 24 hours

Sequence of MCL-1 (Q07820 whole entry): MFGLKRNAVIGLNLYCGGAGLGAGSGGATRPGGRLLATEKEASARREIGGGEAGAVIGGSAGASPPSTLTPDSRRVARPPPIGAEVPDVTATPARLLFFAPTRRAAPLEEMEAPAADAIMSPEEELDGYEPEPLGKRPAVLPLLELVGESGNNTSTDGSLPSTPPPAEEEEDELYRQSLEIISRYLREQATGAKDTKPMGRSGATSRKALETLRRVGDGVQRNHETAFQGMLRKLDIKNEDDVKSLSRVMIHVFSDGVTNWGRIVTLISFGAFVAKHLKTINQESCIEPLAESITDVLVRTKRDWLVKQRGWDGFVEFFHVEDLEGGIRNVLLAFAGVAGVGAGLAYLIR

Ki (MCL-1; class symbols)	IC50 (H929 cells; [4])	Compound	also measured
–	–	CC(C)(C)OC(=O)N1CC=C[C@H](O)[C@@H]2CC[C@H]2CN2C[C@@]3(CCCc4cc(Cl)ccc43)COc3ccc(cc32)S(=O)(=O)NC(=O)C12CCC2	ring closure, isolated yield (from C=CCN(C(=O)OC(C)(C)C)C1(C(=O)NS(=O)(=O)c2ccc3c(c2)N(C[C@@H]2CC[C@H]2[C@@H](O)C=C)C[C@@]2(CCCc4cc(Cl)ccc42)CO3)CCC1, rcm bond, 16-membered ring, Zhan Catalyst II (resin supported), DCE, 1.0 mM, 60.0 °C, 3.0 h): 93%
–	–	CC1(C)OC/C=C/[C@](C)(O)[C@@H]2CC[C@H]2CN2C[C@@]3(CCCc4cc(Cl)ccc43)COc3ccc(cc32)S(=O)(=O)NC1=O	ring closure, yield after HPLC ([1]; from C=CCOC(C)(C)C(=O)NS(=O)(=O)c1ccc2c(c1)N(C[C@@H]1CC[C@H]1[C@@](C)(O)C=C)C[C@@]1(CCCc3cc(Cl)ccc31)CO2, rcm bond, 16-membered ring, Zhan catalyst, DCE, 1.6 mM, 45.0 °C, 2.0 h): 3.3%
–	–	CC1/C=C/[C@H](O)[C@@H]2CC[C@H]2CN2C[C@@]3(CCCc4cc(Cl)ccc43)COc3ccc(cc32)S(=O)(=O)NC(=O)C(C)(C)O1 (stereo partly shown)	ring closure, isolated yield [2]: 62.4%
–	–	CC1/C=C\[C@H](O)[C@@H]2CC[C@H]2CN2C[C@@]3(CCCc4cc(Cl)ccc43)COc3ccc(cc32)S(=O)(=O)NC(=O)C(C)(C)O1 (stereo partly shown)	ring closure, isolated yield [2]: 15.2%
–	–	CO[C@@H]1C=CCN(C(=O)OC(C)(C)C)CC2(CCC2)C(=O)NS(=O)(=O)c2ccc3c(c2)N(C[C@@H]2CC[C@H]21)C[C@@]1(CCCc2cc(Cl)ccc21)CO3	ring closure, isolated yield (from C=CCN(CC1(C(=O)NS(=O)(=O)c2ccc3c(c2)N(C[C@@H]2CC[C@H]2[C@@H](C=C)OC)C[C@@]2(CCCc4cc(Cl)ccc42)CO3)CCC1)C(=O)OC(C)(C)C, rcm bond, 17-membered ring, Hoveyda-Grubbs II, DCE, 2.6 mM, 16.0 h): 80%
–	–	CO[C@@H]1C=CCNC(=O)NS(=O)(=O)c2ccc3c(c2)N(C[C@@H]2CC[C@H]21)C[C@@]1(CCCc2cc(Cl)ccc21)CO3	ring closure, yield after HPLC ([1]; from C=CCNC(=O)NS(=O)(=O)c1ccc2c(c1)N(C[C@@H]1CC[C@H]1[C@@H](C=C)OC)C[C@@]1(CCCc3cc(Cl)ccc31)CO2, rcm bond, 15-membered ring, Hoveyda-Grubbs II, DCE, 1.0 mM, 80.0 °C, 16.0 h): 7.2% and 31%
–	–	C[C@@H]1C(=O)NS(=O)(=O)c2ccc3c(c2)N(C[C@@H]2CC[C@H]2[C@@H](O)/C=C/CN1C(=O)OC(C)(C)C)C[C@@]1(CCCc2cc(Cl)ccc21)CO3	ring closure, isolated yield [3]: 44%
–	–	C[C@@H]1C(=O)NS(=O)(=O)c2ccc3c(c2)N(C[C@@H]2CC[C@H]2[C@@H](O)C=CCN1C(=O)OC(C)(C)C)C[C@@]1(CCCc2cc(Cl)ccc21)CO3	ring closure, isolated yield [3]: 36%
–	–	O=C1NS(=O)(=O)c2ccc3c(c2)N(C[C@@H]2CC[C@H]2[C@@H](O)C=CCOC12CCC2)C[C@@]1(CCCc2cc(Cl)ccc21)CO3	ring closure, isolated yield (from C=CCOC1(C(=O)NS(=O)(=O)c2ccc3c(c2)N(C[C@@H]2CC[C@H]2[C@@H](O)C=C)C[C@@]2(CCCc4cc(Cl)ccc42)CO3)CCC1, rcm bond, 16-membered ring, Hoveyda-Grubbs II, DCE, 1.46 mM, 40.0 °C, 2.0 h): 66.3%
1 to 100 nM	> 1000 nM	O=C1CC/C=C/COC[C@@H]2CC[C@H]2CN2C[C@@]3(CCCc4cc(Cl)ccc43)COc3ccc(cc32)S(=O)(=O)N1 [Example 99, (3R,6R,10E,23S)-6′-Chloro-16,16-dioxo-spiro[8,21-dioxa-16-thia-1,15-diazatetracyclo[15.7.2.03,6.020,25]hexacosa-10,17(26),18,20(25)-tetraene-23,1′-tetralin]-14-one]	ring closure, isolated yield (from C=CCCC(=O)NS(=O)(=O)c1ccc2c(c1)N(C[C@@H]1CC[C@H]1COCC=C)C[C@@]1(CCCc3cc(Cl)ccc31)CO2, rcm bond, 17-membered ring, Hoveyda-Grubbs II, DCM, 16.7 mM, 24.0 h): 51%
< 1 nM	> 1000 nM	O=C1Cc2cncc(c2)OC[C@@H]2CC[C@H]2CN2C[C@@]3(CCCc4cc(Cl)ccc43)COc3ccc(cc32)S(=O)(=O)N1 [Example 104, (3R,6R,24S)-6′-Chloro-17,17-dioxo-spiro[8,22-dioxa-17-thia-1,11,16-triazapentacyclo[16.7.2.19,13.03,6.021,26]octacosa-9(28),10,12,18(27),19,21(26)-hexaene-24,1′-tetralin]-15-one]	ring closure, isolated yield (from NS(=O)(=O)c1ccc2c(c1)N(C[C@@H]1CC[C@H]1COc1cncc(CC(=O)O)c1)C[C@@]1(CCCc3cc(Cl)ccc31)CO2, amide bond, 16-membered ring, EDCI/DMAP, DCM/DMF 9:1, 12.0 mM, 16.0 h): 28%
1 to 100 nM	> 1000 nM	CN1CCOC(C)(C)C(=O)NS(=O)(=O)c2ccc3c(c2)N(C[C@@H]2CC[C@H]2C1=O)C[C@@]1(CCCc2cc(Cl)ccc21)CO3 [Example 110, (3R,6R,22S)-6′-Chloro-8,12,12-trimethyl-15,15-dioxo-spiro[11,20-dioxa-thia-1,8,14-triazatetracyclo[14.7.2.03,6.019,24]pentacosa-16(25),17,19(24)-triene-22,1′-tetralin]-7,13-dione]	ring closure, yield after HPLC ([1]; from CNCCOC(C)(C)C(=O)NS(=O)(=O)c1ccc2c(c1)N(C[C@@H]1CC[C@H]1C(=O)O)C[C@@]1(CCCc3cc(Cl)ccc31)CO2, amide bond, 16-membered ring, HATU/DIEA, DMF, 6.0 mM, 20.0 °C, 1.0 h): 25%
< 1 nM	< 500 nM	CN(C(=O)O[C@H]1/C=C/COC(C)(C)C(=O)NS(=O)(=O)c2ccc3c(c2)N(C[C@@H]2CC[C@H]21)C[C@@]1(CCOc2cc(Cl)ccc21)CO3)C1CCOCC1 [Example 304, [(3R,6R,7S,8E,22S)-7′-Chloro-12,12-dimethyl-13,15,15-trioxo-spiro[11,20-dioxa-15-thia-1,14-diazatetracyclo[14.7.2.03,6.019,24]pentacosa-8,16,18,24-tetraene-22,4′-chromane]-7-yl] N-methyl-N-tetrahydropyran-4-yl-carbamate]	–
< 1 nM	< 500 nM	CC1(C)OC/C=C/[C@H](OC(=O)NC2CCOCC2)[C@@H]2CC[C@H]2CN2C[C@@]3(CCOc4cc(Cl)ccc43)COc3ccc(cc32)S(=O)(=O)NC1=O [Example 305, [(3R,6R,7S,8E,22S)-7′-Chloro-12,12-dimethyl-13,15,15-trioxo-spiro[11,20-dioxa-15-thia-1,14-diazatetracyclo[14.7.2.03,6.019,24]pentacosa-8,16,18,24-tetraene-22,4′-chromane]-7-yl] N-tetrahydropyran-4-yl-carbamate]	–
< 1 nM	< 500 nM	CON(C)C(=O)O[C@H]1/C=C/COC(C)(C)C(=O)NS(=O)(=O)c2ccc3c(c2)N(C[C@@H]2CC[C@H]21)C[C@@]1(CCOc2cc(Cl)ccc21)CO3 [Example 306, [(3R,6R,7S,8E,22S)-7′-Chloro-12,12-dimethyl-13,15,15-trioxo-spiro[11,20-dioxa-15-thia-1,14-diazatetracyclo[14.7.2.03,6.019,24]pentacosa-8,16,18,24-tetraene-22,4′-chromane]-7-yl] N-methoxy-N-methyl-carbamate]	–
< 1 nM	< 500 nM	[2H]C1([2H])/C=C/[C@H](OC(=O)N(C)C)[C@@H]2CC[C@H]2CN2C[C@@]3(CCCc4cc(Cl)ccc43)COc3ccc(cc32)S(=O)(=O)NC(=O)C(C)(C)O1 [Example 312, [(3R,6R,7S,8E,22S)-6′-Chloro-10,10-dideuterio-12,12-dimethyl-13,15,15-trioxo-spiro[11,20-dioxa-15-thia-1,14-diazatetracyclo[14.7.2.03,6.019,24]pentacosa-8,16,18,24-tetraene-22,1′-tetralin]-7-yl] N,N-dimethylcarbamate]	–
–	–	(4′Z,5′E)-6-Chloro-3,4-dihydro-2H-spiro[naphthalene-1,3′-13-thia-12-aza-1(5,7)-benzo[b][1,4]oxazepina-3(4,1)-pyrazolacyclotridecaphanen]-5′-en-11′-one 13′,13′-dioxide and (4′Z,5′Z)-6-chloro-3,4-dihydro-2H-spiro[naphthalene-1,3′-13-thia-12-aza-1(5,7)-benzo[b][1,4]oxazepina-3(4,1)-pyrazolacyclotridecaphanen]-5′-en-11′-one 13′,13′-dioxide [Example 11]	Ki (MCL-1; numeric values): 503 nM; IC50 (H929 cells; 24 hours): > 1000 nM

Compound	Ki (MCL-1; class symbols)	IC50 (H929 cells; [4])	also measured
CO[C@@H]1/C=C/CCNC(=O)NS(=O)(=O)c2ccc3c(c2)N(C[C@@H]2CC[C@H]21)C[C@@]1(CCCc2cc(Cl)ccc21)CO3 [Example 106, (3R,6R,7R,8E,22S)-6′-Chloro-7-methoxy-15,15-dioxo-spiro[20-oxa-15-thia-1,12,14-triazatetracyclo[14.7.2.03,6.019,24]pentacosa-8,16,18,24-tetraene-22,1′-tetralin]-13-one]	1 to 100 nM	< 1000 nM	ring closure, yield after HPLC ([1]; from C=CCCNC(=O)NS(=O)(=O)c1ccc2c(c1)N(C[C@@H]1CC[C@H]1[C@@H](C=C)OC)C[C@@]1(CCCc3cc(Cl)ccc31)CO2, rcm bond, 16-membered ring, Hoveyda-Grubbs II, DCE, 1.5 mM, 80.0 °C, 16.0 h): 43%
